Columns and labels:
[1] = target: T1, human FFAR1 (GPR40) (Homo sapiens, UniProt O14842); assay: NFAT-RE-based reporter gene activity assay (Dual-Glo luciferase) for GPR40 agonistic activity in co-transfected HEK293T cells; type: cell-based; conditions: 4-hour treatment; for Efficacy (%): class symbols
T1 construct: Flag; expressed in transfected cells; host or cells: HEK293T
Summary of the method: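 HEK293T cells co-transfected with human FFAR1, NFAT-RE firefly luciferase and TK-Renilla plasmids; 24 h later treated 4 h with 10 half-log compound dilutions from 1 µM. Firefly/Renilla ratio normalised to DMSO; EC50 from four-parameter fit.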

[2] = Tissue distribution evaluation in ICR mice; type: in vivo; conditions: oral gavage 5 mg/kg, 1 hour after administration
Description: Experimental protocol: The tissue distribution characteristics of the compounds were evaluated in mice. 2 male ICR mice with similar body weights were selected, and the compound was administered via oral gavage at a dose of 5 mg/kg. The animals were sacrificed at 1 hour, and blood, liver, and heart were collected. After sample processing, the concentration of the compounds in each matrix was analyzed by LCMS/MS, and the average values of each group were calculated to evaluate the tissue/plasma ratio of the compounds.
Experimental animals: 2 healthy male ICR mice were purchased from Charles River.
Preparation of formulations: A certain amount of the compound was weighed and added to 2% DMSO + 15% Solutol + 83% distilled water to form a clear solution.
Dosage: ICR mice were fasted overnight and administered the compound via oral gavage at a dose of 5 mg/kg. The volume of oral gavage administration was 10 mL/kg. Uniform feeding was conducted 2 hours after administration.
Sample collection: Animals were sacrificed 1 hour after administration, and blood, liver, and heart tissues were collected. The blood was placed into commercially available tubes containing K2-EDTA. The blood samples were then centrifuged at 4°C and 4600 rpm for 5 minutes to obtain plasma samples. All plasma and tissue samples were rapidly frozen on dry ice and maintained at -70°C until LCMS/MS analysis was performed.
Sample preparation: 50 µL of the plasma sample was aspirated, precipitated with methanol, thoroughly mixed, and centrifuged at 4°C and 14000 rpm for 5 minutes. Then, 75 µL of the supernatant was mixed with 75 µL of methanol for LCMS/MS analysis. Tissue samples were homogenized using methanol. After homogenization, the mixture was centrifuged at 14,000 rpm for 5 minutes at 4°C. Subsequently, 75 µL of the supernatant was mixed with 75 µL of methanol for LCMS/MS analysis.

[3] = Pharmacokinetic evaluation in ICR mice (intravenous and gavage); type: in vivo
Description: The bioavailability and pharmacokinetic behavior of the compounds were evaluated in mice. 6 male ICR mice with similar body weights were selected, among which 3 mice were administered a single gavage dose of 10 mg/kg, and the other 3 mice were intravenously administered a single dose of 5 mg/kg. Blood samples were collected at 5 minutes (intravenous administration), 15 minutes, 30 minutes, 1 hour, 2 hours, 4 hours, and 7 hours after administration. The plasma samples were analyzed for concentration by LCMS/MS, and the pharmacokinetic parameters of the compounds were analyzed using the PKSolver free tool and non-compartmental analysis (NCA) software.
Experimental animals: Each compound test group included 6 healthy male ICR mice, weighing 18-25 g, purchased from Charles River, which were randomly divided into 2 groups with 3 mice each.
Preparation of formulations: A certain amount of the compound was weighed and added to 2% DMSO + 15% Solutol + 83% physiological saline to form a clear solution.
Dosage: ICR mice were fasted overnight and administered the compound at a dose of 10 mg/kg via gavage or 5 mg/kg via intravenous injection. The dosing volumes for gavage and intravenous administration were 10 mL/kg and 5 mL/kg, respectively. Uniform feeding was conducted 2 hours after administration.
Sample collection: Approximately 30 µL of blood was collected from the great saphenous vein at 5 minutes (intravenous administration), 15 minutes, 30 minutes, 1 hour, 2 hours, 4 hours, and 7 hours after administration. The blood was placed into commercially available tubes containing K2-EDTA. The blood samples were then centrifuged at 4°C and 4600 rpm for 5 minutes to obtain plasma samples. All plasma samples were rapidly frozen on dry ice and maintained at -70°C until LCMS/MS analysis was performed.
Sample preparation: 10 µL of plasma sample was aspirated and precipitated with a methanol solution containing 50 nmol/L of α-naphthoflavone (internal standard). The mixture was thoroughly mixed and centrifuged at 4°C and 14000 rpm for 5 minutes. Then, 75 µL of the supernatant was mixed with 75 µL of methanol for LCMS/MS analysis.

[4] = test system: normal male C57BL6/J mice; assay: In vivo hypoglycemia risk assay in fasted normal C57BL6/J mice; conditions: mouse, in vivo, po, 10 mg/kg
Description: The blank control group was orally administered with the vehicle control (2% DMO + 15% solutol + 83% DDW solution), with a dosing volume of 10 mL/kg. […] […] Data were expressed as mean ± standard deviation. One-way ANOVA was employed for statistical analysis, with p < 0.05 considered statistically significant.

[5] = test system: normal C57BL6/J mice; assay: Oral glucose tolerance test (OGTT) in normal C57BL6/J mice; type: in vivo; conditions: 1 mg/kg gavage, single dose; for AUC 0-120 minutes: blood glucose AUC
Description: Eighteen normal male C57BL6/J mice (8-9 weeks old) were selected and randomly divided into 3 groups based on body weight and blood glucose levels, with 6 mice in each group. On the day of the OGTT, fasting was initiated at 8:30 AM. At 11:30 AM, drug interventions were administered via gavage (vehicle control, compound 14, 1 mg/kg, and compound 169, 1 mg/kg). At 1:30 PM, glucose (2 g/kg) was administered via gavage, while the blank control group received the vehicle control orally (2% DMSO + 15% solutol + 83% DDW solution) at a dosing volume of 10 mL/kg. Blood glucose measurements during the OGTT were taken at the following time points: 0, 15, 30, 60, 90, and 120 minutes after glucose administration.
Blood glucose levels were measured at 0, 15, 30, 60, and 120 minutes after glucose administration. The area under the curve (AUC) for blood glucose over 120 minutes was calculated. [formula]
Note: BG0, BG15, BG30, BG60, BG90, and BG120 represent the blood glucose levels at 0, 15, 30, 60, 90, and 120 minutes after glucose administration, respectively.
Data were expressed as mean ± standard deviation. One-way ANOVA was employed for statistical analysis, with p < 0.05 considered statistically significant.

[6] = Intravenous Administration (5 mg/kg)
[7] = mouse, plasma, po, Gavage Administration (10 mg/kg)

T1 sequence (O14842 whole entry): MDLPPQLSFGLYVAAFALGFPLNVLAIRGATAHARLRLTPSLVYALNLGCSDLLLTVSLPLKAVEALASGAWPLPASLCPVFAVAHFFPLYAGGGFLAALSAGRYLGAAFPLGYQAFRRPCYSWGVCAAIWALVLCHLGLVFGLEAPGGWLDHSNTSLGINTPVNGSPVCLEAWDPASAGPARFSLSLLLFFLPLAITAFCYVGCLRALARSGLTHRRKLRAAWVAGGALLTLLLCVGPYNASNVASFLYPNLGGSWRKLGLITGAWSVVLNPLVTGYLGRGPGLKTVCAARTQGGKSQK

## COc1ccc(F)c(N2CCC(c3oc4cc(C(CC(=O)O)C5CC5)ccc4c3-c3ccc(C(C)(C)C)cc3)CC2)c1 (stereo not drawn) [Compound 168]
[1]
  EC50: 100 to 500 nM
  Efficacy (%): ††† (Efficacy (%) > 150)
[2]
  Plasma Concentration (ng/mL) or Tissue Concentration (ng/g): Blood: 936 ng/mL
  Plasma Concentration (ng/mL) or Tissue Concentration (ng/g): Heart: 485 ng/g
  Plasma Concentration (ng/mL) or Tissue Concentration (ng/g): Liver: 1923 ng/g
  Plasma Concentration (ng/mL) or Tissue Concentration (ng/g): Plasma: 1550 ng/mL
[3]; [6]
  CL_obs: 2.1 mL/min/kg
  Vss_obs: 0.494 L/kg
[3]; mouse, plasma, Intravenous Administration (5 mg/kg)
  half-life: 3.9 h
[3]; [7]
  Cmax: 3470 ng/mL
  Tmax: 3 h
[3]; mouse, plasma, po, Gavage Administration (10 mg/kg), read-out: AUC0-7 h
  AUC(0-t) at 7 h: 15400 ng·h/mL
[3]; mouse, plasma, po, gavage 10 mg/kg versus intravenous 5 mg/kg
  bioavailability: 24%

## COc1ccc(Cl)cc1C(=O)NCCc1ccc(S(=O)(=O)NC(=O)NC2CCCCC2)cc1 [Glibenclamide, reference compound]
[4]
  AUC0-120 minutes (mmol*min): 492±50.30** mmol*min

## COc1cccc(N2CCC(c3oc4cc([C@@H](CC(=O)O)C5CC5)ccc4c3-c3ccc(C(C)(C)C)cc3)CC2)c1 [Compound 14]
[1]
  EC50: 10 to 100 nM
  Efficacy (%): ††† (Efficacy (%) > 150)
[5]; 0 minutes after glucose (2 g/kg)
  Blood Glucose: 7.58 ± 0.59 mmol/L
[5]; 15 minutes after glucose (2 g/kg)
  Blood Glucose: 11.08 ± 2.04 mmol/L
[5]; 30 minutes after glucose (2 g/kg)
  Blood Glucose: 9.17 ± 1.37 mmol/L
[5]; 60 minutes after glucose (2 g/kg)
  Blood Glucose: 7.6 ± 1.34 mmol/L
[5]; 90 minutes after glucose (2 g/kg)
  Blood Glucose: 6.52 ± 2 mmol/L
[5]; 120 minutes after glucose (2 g/kg)
  Blood Glucose: 5.87 ± 1.13 mmol/L
[5]; 1 mg/kg
  AUC 0-120 minutes: 941±62.00
[5]; listed as compound 14, 1 mg/kg
  AUC 0-120 minutes: significantly reduced

## COc1ccc(F)c(N2CCC(c3oc4cc(C(CC(=O)O)C5CC5)ccc4c3-c3cccc(C(C)(C)C)c3)CC2)c1 (stereo not drawn) [Compound 165]
[1]
  EC50: 100 to 500 nM
  Efficacy (%): ††† (Efficacy (%) > 150)
[2]
  Plasma Concentration (ng/mL) or Tissue Concentration (ng/g): Blood: 842 ng/mL
  Plasma Concentration (ng/mL) or Tissue Concentration (ng/g): Heart: 418 ng/g
  Plasma Concentration (ng/mL) or Tissue Concentration (ng/g): Liver: 1548 ng/g
  Plasma Concentration (ng/mL) or Tissue Concentration (ng/g): Plasma: 1290 ng/mL

Reference: patent publication EP4682145A1, “BENZOHETEROCYCLIC COMPOUND, AND PREPARATION METHOD THEREFOR AND USE THEREOF” (Cascade Pharmaceuticals, Inc., priority 2023, dated 2024)
